Data: patent US8563729B2, “Thienopyridone derivatives as AMP-activated protein kinase (AMPK) activators” (Merck Patent GmbH, priority 2008, dated 2013)

Tests used:
[1] = ob/ob and db/db mice, 8 day AICAR administration; cited from earlier work
[2] = biological target: T1, AMPK protein (recombinant α1β1γ2) (Homo sapiens, UniProt Q13131+Q9Y478); test: AMPK enzymatic activity (Delfia, AMARA peptide substrate); format: biochemical; conditions: compound 30 μM vs AMP 30 μM; 125 μM ATP; ratio 90% or higher = direct activator
T1 construct: made in house; host or cells: E. coli
T1 sequence (Q13131 whole entry): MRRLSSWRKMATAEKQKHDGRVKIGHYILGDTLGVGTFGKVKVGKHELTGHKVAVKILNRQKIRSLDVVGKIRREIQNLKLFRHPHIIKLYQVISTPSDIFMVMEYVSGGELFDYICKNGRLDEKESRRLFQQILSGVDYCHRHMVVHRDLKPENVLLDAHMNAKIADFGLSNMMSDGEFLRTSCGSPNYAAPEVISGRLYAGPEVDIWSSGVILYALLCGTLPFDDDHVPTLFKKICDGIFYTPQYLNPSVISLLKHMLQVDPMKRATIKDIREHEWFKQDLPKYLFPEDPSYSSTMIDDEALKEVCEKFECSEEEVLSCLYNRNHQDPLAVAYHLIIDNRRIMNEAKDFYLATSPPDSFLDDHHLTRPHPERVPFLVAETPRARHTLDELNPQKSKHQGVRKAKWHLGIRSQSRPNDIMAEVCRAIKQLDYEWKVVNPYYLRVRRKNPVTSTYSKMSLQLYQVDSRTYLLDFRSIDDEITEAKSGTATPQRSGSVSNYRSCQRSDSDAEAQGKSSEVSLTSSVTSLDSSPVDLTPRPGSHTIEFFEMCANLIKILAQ
T1 sequence (Q9Y478 whole entry): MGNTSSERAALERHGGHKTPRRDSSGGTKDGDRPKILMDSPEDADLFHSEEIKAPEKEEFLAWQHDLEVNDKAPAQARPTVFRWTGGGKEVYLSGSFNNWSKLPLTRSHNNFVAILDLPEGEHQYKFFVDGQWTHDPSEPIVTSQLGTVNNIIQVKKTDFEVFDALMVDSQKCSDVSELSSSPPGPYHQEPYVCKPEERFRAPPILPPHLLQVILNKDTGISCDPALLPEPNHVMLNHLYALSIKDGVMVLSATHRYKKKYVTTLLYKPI
T1 sequence (Q9UGJ0 whole entry partner): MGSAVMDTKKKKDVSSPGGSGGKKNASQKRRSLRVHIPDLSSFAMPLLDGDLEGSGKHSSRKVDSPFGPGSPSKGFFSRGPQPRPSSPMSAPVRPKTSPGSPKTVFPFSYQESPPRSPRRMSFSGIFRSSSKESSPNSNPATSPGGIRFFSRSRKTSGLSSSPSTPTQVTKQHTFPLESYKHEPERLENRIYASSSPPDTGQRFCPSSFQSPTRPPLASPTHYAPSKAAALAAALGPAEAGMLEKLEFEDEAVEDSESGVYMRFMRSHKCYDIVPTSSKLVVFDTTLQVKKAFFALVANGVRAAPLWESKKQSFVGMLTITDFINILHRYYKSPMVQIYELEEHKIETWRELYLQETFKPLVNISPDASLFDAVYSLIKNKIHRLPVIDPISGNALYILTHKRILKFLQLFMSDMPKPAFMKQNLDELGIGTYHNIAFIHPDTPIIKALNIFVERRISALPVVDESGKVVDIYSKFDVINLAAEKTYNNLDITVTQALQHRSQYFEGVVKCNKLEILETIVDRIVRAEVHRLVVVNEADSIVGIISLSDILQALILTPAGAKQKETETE
Method in brief: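 Human α1β1γ2 AMPK expressed in E. coli, reactivated in vitro by LKB1, assayed in 50 mM Hepes pH 7.4 with 125 μM ATP and AMARA peptide for 30 min at room temperature; phosphorylation detected by Delfia anti-phosphoserine antibody. Activity = % of basal control at 30 μM compound relative to that of 30 μM AMP.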

[3] = test system: H-2 Kb cells; test: Glucose uptake in H-2 Kb cells (in vitro cellular test); format: cell-based, mouse; conditions: H-2 Kb cells differentiated in muscle, 4 hours incubation, 2-deoxy-D-[1,2 3H] glucose uptake 10 min
Method in brief: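 H-2 Kb tsA58 mouse cells were differentiated to muscle at 37° C without interferon-γ for 3 days, then exposed to compound for 4 h in 1 g/l glucose DMEM. Uptake of 3H-2-deoxyglucose over 10 min was measured by scintillation. Activity was taken as the compound concentration matching or exceeding uptake with insulin (170 nM), scored ≦10 or >10 micro Molar.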

| Compound | reduction of blood glucose [1] [%] | activity: Ratio between the % of control (basal activity) of compound of formula (I) at 30 μM and the % of control (basal activity) of AMP at 30 μM [2] [%] | Activity (table III): Concentration of compound (I) for a glucose uptake equal or higher to glucose uptake induced by insulin (170 nM) [3] |
| --- | --- | --- | --- |
| NC(=O)c1ncn([C@@H]2O[C@H](CO)[C@@H](O)[C@H]2O)c1N [AICAR] | 35 | – | – |
| Cc1ccc(-c2csc3[nH]c(=O)c(-c4ccc(F)cc4)c(O)c23)c(O)c1F [Compound 204] | – | 189 | + (^+ or *concentration of compound (I) >10 micro Molar) |
| Cc1ccc(-c2c(Cl)sc3[nH]c(=O)c(-c4ccc(F)cc4)c(O)c23)c(O)c1F [Compound 206] | – | 184 | + (^+ or *concentration of compound (I) >10 micro Molar) |
| Cc1cc(O)c(-c2c(Cl)sc3[nH]c(=O)c(-c4ccccc4)c(O)c23)cc1C [Compound 207] | – | 213 | + (^+ or *concentration of compound (I) >10 micro Molar) |
| O=c1[nH]c2sc(Cl)c(-c3ccc(F)c(F)c3O)c2c(O)c1-c1ccccc1 [Compound 208] | – | 131 | + (^+ or *concentration of compound (I) >10 micro Molar) |
| CCc1ccc(-c2c(Cl)sc3[nH]c(=O)c(-c4ccccc4)c(O)c23)c(O)c1 [Compound 209] | – | 297 | ++ (^++ or **concentration of compound (I) ≦10 micro Molar) |
| Cc1ccc(-c2c(Cl)sc3[nH]c(=O)c(-c4ccccc4)c(O)c23)c(O)c1F [Compound 210] | – | 181 | ++ (^++ or **concentration of compound (I) ≦10 micro Molar) |
| Cc1ccc(-c2c(F)sc3[nH]c(=O)c(-c4ccc(F)cc4)c(O)c23)c(O)c1F [Compound 211] | – | 149 | + (^+ or *concentration of compound (I) >10 micro Molar) |
| COc1ccc(-c2c(O)c3c(-c4ccc(F)cc4O)c(Cl)sc3[nH]c2=O)cc1 [Compound 212] | – | 183 | + (^+ or *concentration of compound (I) >10 micro Molar) |
| O=c1[nH]c2sc(Cl)c(-c3ccc(F)cc3O)c2c(O)c1-c1ccc(F)cc1 [Compound 213] | – | 349 | + (^+ or *concentration of compound (I) >10 micro Molar) |
